# In US20170260126A1, “SQUALENE COMPOUNDS AS MODULATORS OF LDL-RECEPTOR EXPRESSION” (OXFORD UNIVERSITY INNOVATION LIMITED, priority 2014, published 2017):
# Key:
# Squalene Synthase = molecular target: T1, Squalene Synthase (Homo sapiens, UniProt P37268); test: Squalene Synthase activity assay in human liver microsomes with [1-3H]FPP; format: biochemical; settings: FIG. 1b
# T1 construct: 12 μg human liver microsomes; from tissue; host or cells: human liver microsomes
# T1 sequence (P37268 1-417): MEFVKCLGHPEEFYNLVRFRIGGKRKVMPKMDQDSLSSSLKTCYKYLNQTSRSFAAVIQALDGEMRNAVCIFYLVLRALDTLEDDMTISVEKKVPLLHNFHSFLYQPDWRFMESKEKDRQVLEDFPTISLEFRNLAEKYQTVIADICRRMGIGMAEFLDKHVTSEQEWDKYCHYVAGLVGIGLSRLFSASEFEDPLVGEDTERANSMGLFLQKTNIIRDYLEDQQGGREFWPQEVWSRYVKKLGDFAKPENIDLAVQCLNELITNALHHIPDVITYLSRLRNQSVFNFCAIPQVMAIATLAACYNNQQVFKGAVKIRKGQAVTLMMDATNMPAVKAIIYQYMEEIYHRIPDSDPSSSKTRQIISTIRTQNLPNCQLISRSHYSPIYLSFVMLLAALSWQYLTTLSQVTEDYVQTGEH
# Experimental: Squalene Synthase activity assays were performed in 1 mL reactions containing 50 mM phosphate buffer (pH 7.4, 10 mM MgCl2), 12 μg human liver microsomes, [1-^3H]FPP (0.045 Ci/mmol) and 0.5 mM NADPH. Enzyme and inhibitors were incubated for 10 minutes at 37° C. Substrate was then added and reaction was incubated for 10 min at 37° C. Reaction was stopped by adding 1 mL of 15% KOH in ethanol and incubated at 65° C. for 30 minutes. 5 mL of petroleum ether was added and reaction was shaken for 10 minutes at room temperature. The lower aqueous phase was frozen and the upper organic phase transferred to fresh glass tubes containing 2 mL distilled water. 1.5 mL of the organic phase was transferred to a scintillation vial containing liquid scintillation fluid, and radioactivity was quantitated using a Beckman liquid scintillation counter. Data was analyzed using Prism Graphpad software.
# As a representative example, compound 40 (Example 15; JM-086) was tested for squalene synthase inhibitory properties alongside compound 15a (Example 1), and the known squalene synthase inhibitor, YM-53601, as a positive control.
# [1] = system: CHO pLDLR-Luciferase cells; test: Luciferase assay (LDLR promoter-luciferase reporter in CHO cells); format: cell-based, Chinese Hamster; design: Emax: unit not given here; settings: 48 hours after treatment; for EC50: Cricetulus griseus
# Experimental: Chinese Hamster Ovary (CHO) cells cultivated in 2×75 […] conical flasks had their media removed and washed in 5 mL of PBS before 2 mL of Trypsin was added. The cells were swirled for a minute, before being placed in the 37° C. incubator for 5 min. The conical flasks were tapped to remove cells from the bottom, and aspirated out into 2×13 mL of Ham F-12 media containing 10% FBS and 1% L-Glutamine. The cells were then spun down at 1000 rpm for 5 min. The media was aspirated off, and the pellet from each of the two flasks was resuspended in 5 mL of media. The cells were counted, plated into a 24-well plate to give 1.5×10^5 cells/well in 500 μL of media, and placed in the 37° C. incubator. 2 mL of the remaining cells was added to 38 mL of media, plated 20 mL each into 2×75 cm^2 conical flasks, and placed in the 37° C. incubator.
# After 24 h, the media was aspirated out and replaced with 500 μL Lipoprotein Deficient Serum (LPDS) media. The plate was then returned to the incubator for a further 24 h.
# Following this incubation, the compound to be tested was dissolved in DMSO to give a concentration of 1 mg/mL. An appropriate amount of this solution was then added to FPS media to give 5 mL at a concentration of 10 μM. Serial dilution then gave the other required concentrations, to give testing concentrations of 0.1 nM, 1 nM, 10 nM, 30 nM, 100 nM, 1 μM and 10 μM. A 1 μM compound 49 positive control was also prepared from a stock solution in DMSO, and 0.1% DMSO control was also prepared as a negative control. Each well was then treated with 500 μL of each solution, according to the plate map shown below, and the plates were placed in the incubator.
# 48 hours after treatment, the cell media was aspirated and cells were washed with 500 μL of PBS. 100 μL of luciferase lysis buffer (12.5 mL 1M TrisPO4 pH 7.8, 5 mL 0.2M CDTA solution, 50 mL glycerol, 5 mL Triton-X 100, 427.5 mL H2O) was added to each sample; samples were shaken for 20 min at 4° C. before being pipetted up and down, then the plate was spun at 4500 rpm for 5 min. 75 μL of lysate was pippetted into a 96-well plate. The plate was then run on a Dynex Technologies MLX 96 Well Plate Luminometer using revalation software. 100 µL of luciferase assay buffer solution and 50 μL of Luciferin solution (200 μL Luciferin 10X, 1800 μL H2O) was dispensed each time. Response was recorded in Relative Light Units (RLUs), normalised to standards from a bicinchoninic acid (BCA) assay.
# Prepared using 3 mL luciferase assay buffer (7.5 mL 1M MgSO4, 7.5 mL 1M TrisPO4 pH 7.8 buffer, 20 mL 0.1M EGTA pH 7.8, 465 mL H2O), added to 60 μL of 100 mM ATP and 6 μL of 1 M DTT solution.
# [2] = system: CHO pLDLR-Luciferase cells; test: Combination therapy experiments, luciferase compound screen with simvastatin; format: cell-based, Chinese Hamster; settings: Cricetulus griseus; single agent, CHO-pLDLR-Luc, FIG. 3a/3b; read-out: EC50, increase in levels of luciferase
# Experimental: As described above, CHO WT cells transfected with pLDLR-Luc (CHO-pLDLR-Luc) were grown in HamsF-12(Sigma N4888) medium supplemented with 10% fetal bovine serum (FBS), 1% penicillin/streptomycin, 1% L-glutamine, in a 5% CO2 incubator at 37° C. CHO-pLDLR-Luc were seeded in 24-well plates at 1.5×10^5 per well. After 24h cells were changed to HamsF-12(Sigma N4888) supplemented with 10% lipoprotein deficient serum (LDPS), 1% penicillin/streptomycin, 1% L-glutamine. Compounds and simvastatin (Sigma S6196) dissolved in DMSO and Cholesterol(Sigma C8667) and 25-Hydroxycholesterol(Sigma H1015) dissolved in ethanol were added 24 h after serum starvation.
# Simvastatin and compound 40 (Example 15; JM-086) were added together. The compounds were added at the exact same time, with the EC50 of either compound 40 (JM-086) or Simvastatin added into the media containing increasing doses of either compound 40 (JM-086) or Simvastatin then being added to the CHO pLDLR-Luciferase cells.
Compound,squalene synthase inhibition (Squalene Synthase),Emax [1],EC50 [1],melting point,EC50 [2]
"CN(C)CCCOc1ccc(/C=C/c2ccccc2)cc1 [Compound 15a, (E)-N,N-dimethyl-3-(4-styrylphenoxy)propan-1-amine]",dose-dependent activity,5,0.039 µM,75 to 77 °C,–
"Oc1ccc(/C=C/c2ccccc2)cc1 [Compound 32, (E)-4-styrylphenol]",–,34,3 µM,–,–
"CC(C)CCCOc1ccc(/C=C/c2ccccc2)cc1 [Compound 39, (E)-1-((4-methylpentyl)oxy)-4-styrylbenzene]",–,8,1 µM,97 to 98 °C,–
"OCCCOc1ccc(/C=C/c2ccccc2)cc1 [Compound 40, (E)-3-(4-styrylphenoxy)propan-1-ol]",dose-dependent activity,32,0.035 µM,–,0.0315 µM
"COCCCOc1ccc(/C=C/c2ccccc2)cc1 [Compound 41, (E)-1-(3-methoxypropoxy)-4-styrylbenzene]",–,44,1.5 µM,77.8 to 81 °C,–
"COc1ccc(/C=C/c2ccc(OCCCN(C)C)cc2)cc1 [Compound 44a, (E)-3-(4-(4-methoxystyryl)phenoxy)-N,N-dimethylpropan-1-amine]",–,30,0.26 µM,138 to 140 °C,–
"COc1cccc(/C=C/c2ccc(OCCCN(C)C)cc2)c1 [Compound 44b, (E)-3-(4-(3-methoxystyryl)phenoxy)-N,N-dimethylpropan-1-amine]",–,9,2.5 µM,28 to 32 °C,–
"COc1ccccc1/C=C/c1ccc(OCCCN(C)C)cc1 [Compound 44c, (E)-3-(4-(2-methoxystyryl)phenoxy)-N,N-dimethylpropan-1-amine]",–,8,0.31 µM,177.6 to 180.9 °C,–
"CN(C)CCCOc1ccc(/C=C/c2ccc(F)cc2)cc1 [Compound 46a, (E)-3-(4-(4-fluorostyryl)phenoxy)-N,N-dimethylpropan-1-amine]",–,24,2 µM,128.8 to 129.9 °C,–
"CN(C)CCCOc1ccc(/C=C/c2cccc(F)c2)cc1 [Compound 46b, (E)-3-(4-(3-fluorostyryl)phenoxy)-N,N-dimethylpropan-1-amine]",–,9,1.5 µM,56.2 to 58.6 °C,–
"CN(C)CCCOc1ccc(/C=C/c2ccc([N+](=O)[O-])cc2)cc1 [Compound 47a, (E)-N,N-dimethyl-3-(4-(4-nitrostyryl)phenoxy)propan-1-amine]",–,39,3 µM,85.2 to 85.9 °C,–
"CN(C)CCCOc1ccc(/C=C/c2ccccc2[N+](=O)[O-])cc1 [Compound 47c, (E)-N,N-dimethyl-3-(4-(2-nitrostyryl)phenoxy)propan-1-amine]",–,5,3 µM,51.9 to 57.1 °C,–
"CN(C)CCCOc1ccc(/C=C/c2ccccc2)cc1F [Compound 62, (E)-3-(2-fluoro-4-styrylphenoxy)-N,N-dimethylpropan-1-amine]",–,15,3 µM,68.2 to 72.6 °C,–
"COc1ccc(/C=C/c2ccccc2)cc1 [Compound 65, (E)-1-methoxy-4-styrylbenzene]",–,6,0.05 µM,–,–
"CNCCCOc1ccc(/C=C/c2ccccc2)cc1 [Compound 69, (E)-N-methyl-3-(4-styrylphenoxy)propan-1-amine]",–,8,0.32 µM,84.2 to 87.7 °C,–
"CCC(C)(C)C(=O)O[C@H]1C[C@@H](C)C=C2C=C[C@H](C)[C@H](CC[C@@H]3C[C@@H](O)CC(=O)O3)[C@H]21 [Simvastatin, reference compound]",–,–,–,–,0.128 µM
